As usually defined, the IC50 is the point on the concentration scale where inhibition reaches its midpoint. Lower therefore signals greater potency.

The target in this assay is T1, wildtype HIV-1 protease (Human immunodeficiency virus type 1 group M subtype B, UniProt P04585).
T1 construct: preincubated with the HIV-1 protease (wild type) enzyme in assay buffer; made in house; host or cells: Escherichia coli
In words: Assay for Inhibition of Microbial Expressed HIV Protease (Pepcleav). In kind it is biochemical. The method, then: Assay for Inhibition of Microbial Expressed HIV Protease (“Pepcleav”)
Studies of the inhibition of the wildtype HIV-1 protease (which was expressed in Escherichia coli) were carried out with a peptide substrate [Val-Ser-Gln-Asn-(βnaphthyl)Ala-Pro-Ile-Val (SEQ ID NO: 1)]. The inhibitor was first preincubated with the HIV-1 protease (wild type) enzyme in assay buffer (50 mM sodium acetate, pH 5.5, 100 mM NaCl, and 0.1% BSA) for 30 minutes at room temperature. Substrate was added to 400 micromolar in a total volume of 20 microliters containing 20 picomolar HIV-1 protease (final) and the reaction was incubated for 1 hour at 30° C. The reaction was quenched with the addition of formic acid and indinavir to 0.012% and 150 nM final concentrations, respectively. The product formation was determined after separation of product and substrate on a Zorbax Eclipse XDB-C18 column connected to an API 4000 mass spectrometer (Applied Biosystems) with multiple reaction monitoring (transitions were 644.5/428.9 and 615.4/422.2 (M1/M3) for product and indinavir respectively). The extent of inhibition of the reaction was determined from the peak area of the products. Analysis of the products, independently synthesized, provided quantitation standards and confirmation of the product composition.
`COC(=O)N[C@H](C(=O)Nc1ccccc1CC[C@@H]1CN[C@H](c2nc3nccnc3[nH]2)CO1)C(c1ccccc1)c1ccccc1` [Example 21, methyl N-[(1S)-1-benzhydryl-2-[[2-[2-[(2R,5R)-5-(3H-imidazo[4,5-b]pyrazin-2-yl)morpholin-2-yl]ethyl]phenyl]amino]-2-oxo-ethyl]carbamate] returned an IC50 of 1.68 nM.
The compound `COC(=O)N[C@H](C(=O)Nc1ccccc1CC[C@@H]1CN[C@H](c2nc3ccc(O)nc3[nH]2)CO1)C(c1ccccc1)c1ccccc1` [Example 89] came in with an IC50 of 150 nM. Against the preceding compound, the IC50 is about 89-fold higher.
In turn, `O=C(CC(c1ccccc1)c1ccccc1)Nc1cccc(F)c1CC[C@@H]1CN[C@H](c2nc3ccccc3[nH]2)CO1` [Example 100, N-(2-{2-[(2R,5R)-5-(1H-benzimidazol-2-yl)morpholin-2-yl]ethyl}-3-fluorophenyl)-3,3-diphenylpropanamide] displayed an IC50 of 0.65 nM.
For the compound `COC(=O)N[C@H](C(=O)Nc1ccccc1CC[C@@H]1CN[C@H](c2cc3cc(Cl)ccc3[nH]2)CO1)C(c1ccccc1)c1ccccc1` [Example 57, N-(2-{2-[(2R,5R)-5-(5-chloro-1H-indol-2-yl)morpholin-2-yl]ethyl}phenyl)-Nα-(methoxycarbonyl)-β-phenyl-L-phenylalaninamide], the IC50 was found to be 70.2 nM. This IC50 is about 110-fold higher than that of the compound before.
As for `COC(=O)N[C@H](C(=O)Nc1ccccc1CC[C@@H]1CN[C@H](c2ncc[nH]2)[C@@H](CSc2nnc(-c3ccncc3)o2)O1)C(c1ccccc1)c1ccccc1` [Example 87, N-(2-{2-[(2R,5R)-(1H-imidazol-2-yl)-6-{[(5-pyridin 4-yl-1,3,4-oxadiazol-2-yl)sulfanyl]methyl}morpholin-2-yl]ethyl}phenyl)-Nalpha-(methoxycarbonyl)-β-phenyl-L-phenylalaninamide], the IC50 is 0.6 nM. This IC50 lies about 120-fold lower than the previous one.
`COC(=O)N[C@H](C(=O)Nc1ccccc1CC[C@@H]1CN[C@H](c2cc3cc(OC)ccc3[nH]2)CO1)C(c1ccccc1)c1ccccc1` [Example 56, Nα-(methoxycarbonyl)-N-(2-{2-[(2R,5R)-5-(5-methoxy-1H-indol-2-yl)morpholin-2-yl]ethyl}phenyl)-β-phenyl-L-phenylalaninamide] gave an IC50 of 98.3 nM.
The compound `O=C(CCc1ccccc1Cl)Nc1cccc(F)c1CC[C@@H]1CN[C@H](c2nc3ccccc3[nH]2)CO1` [Example 99, N-(2-{2-[(2R,5R)-5-(1H-benzimidazol-2-yl)morpholin-2-yl]ethyl}-3-fluorophenyl)-3-(2-chlorophenyl) propanamide] displayed an IC50 of 11 nM.
`COC(=O)N[C@H](C(=O)Nc1ccccc1CC[C@@H]1CN[C@H](c2nc(C)c(C)[nH]2)CO1)C(c1ccccc1)c1ccccc1` [Example 48, N-(2-{2-[(2R,5R)-5-(4,5-dimethyl-1H-imidazol-2-yl)morpholin-2-yl]ethyl}phenyl)-Nα-(methoxycarbonyl)-β-phenyl-L-phenylalaninamide] had an IC50 of 1.81 nM.
Compound `COC(=O)N[C@H](C(=O)Nc1ccccc1CC[C@@H]1CN[C@H](c2nc3c(C)cc(Cl)cc3[nH]2)CO1)C(c1ccccc1)c1ccccc1` [Example 24, methyl N-[(1S)-1-benzhydryl-2-[[2-[2-[(2R,5R)-5-(6-chloro-4-methyl-1H-benzimidazol-2-yl)morpholin-2-yl]ethyl]phenyl]amino]-2-oxo-ethyl]carbamate] returned an IC50 of 16.3 nM.
On to `COC(=O)N[C@H](C(=O)Nc1ccccc1CC[C@@H]1CN[C@H](c2nc3cc(Cl)c(Cl)cc3[nH]2)CO1)C(c1ccccc1)c1ccccc1` [Example 12], for which 0.706 nM corresponded to half-maximal inhibition (IC50).
To `Cc1cc2nc([C@@H]3CO[C@H](CCc4c(F)cncc4NC(=O)C4(Cc5ccccc5Cl)CC4)CN3)[nH]c2cc1C` [Example 33] belongs 4.08 nM; to `COC(=O)N[C@H](C(=O)Nc1ccccc1CC[C@@H]1CN[C@H](c2cnc(C)[nH]2)CO1)C(c1ccccc1)c1ccccc1` [Example 47, Nα-(methoxycarbonyl)-N-(2-{2-[(2R,5R)-5-(2-methyl-1H-imidazol-5-yl)morpholin-2-yl]ethyl}phenyl)-β-phenyl-L-phenylalaninamide], 378 nM.
In turn, `COC(=O)N[C@H](C(=O)Nc1ccccc1CC[C@@H]1CN[C@H](c2nc3c(O)cccc3[nH]2)CO1)C(c1ccccc1)c1ccccc1` [Example 15, methyl N-[(1S)-1-benzhydryl-2-[[2-[2-[(2R,5R)-5-(4-hydroxy-1H-benzimidazol-2-yl)morpholin-2-yl]ethyl]phenyl]amino]-2-oxo-ethyl]carbamate] yielded an IC50 of 0.0559 nM.
The value for `COC(=O)N[C@H](C(=O)Nc1ccccc1CC[C@@H]1CN[C@H](c2nc3ccccc3[nH]2)CO1)C(c1ccccc1)c1ccccc1` [Example 1, N-(2-{2-[(2R,5R)-5-(1H-benzimidazol-2-yl)morpholin-2-yl]ethyl}phenyl)-Nα-(methoxycarbonyl)-β-phenyl-L-phenylalaninamide] was 0.0374 nM; that for `COC(=O)N[C@H](C(=O)Nc1ccccc1CC[C@@H]1CN[C@H](c2cc3cccc(Cl)c3[nH]2)CO1)C(c1ccccc1)c1ccccc1` [Example 59, N-(2-{2-[(2R,5R)-5-(7-chloro-1H-indol-2-yl)morpholin-2-yl]ethyl}phenyl)-Nα-(methoxycarbonyl)-β-phenyl-L-phenylalaninamide] was 96.4 nM.
The value for `COC(=O)N[C@H](C(=O)Nc1ccccc1CC[C@@H]1CN[C@H](c2nc3ccc(OC)cc3[nH]2)CO1)C(c1ccccc1)c1ccccc1` [Example 6, methyl N-[(1S)-1-benzhydryl-2-[[2-[2-[(2R,5R)-5-(6-methoxy-1H-benzimidazol-2-yl)morpholin-2-yl]ethyl]phenyl]amino]-2-oxo-ethyl]carbamate] was 0.334 nM; that for `COC(=O)N[C@H](C(=O)Nc1cncc(F)c1CC[C@@H]1CN[C@H](c2nc3cc(C)c(C)cc3[nH]2)CO1)C(c1ccccc1)c1ccccc1` [Example 31, methyl N-[(1S)-1-benzhydryl-2-[[4-[2-[(2R,5R)-5-(5,6-dimethyl-1H-benzimidazol-2-yl)morpholin-2-yl]ethyl]-5-fluoro-3-pyridyl]amino]-2-oxo-ethyl]carbamate] was 0.00965 nM.
To `COC(=O)N[C@H](C(=O)Nc1ccccc1CC[C@@H]1CN[C@H](c2nc3c(Cl)cc(C(F)(F)F)cc3[nH]2)CO1)C(c1ccccc1)c1ccccc1` [Example 26, methyl N-[(1S)-1-benzhydryl-2-[[2-[2-[(2R,5R)-5-[4-chloro-6-(trifluoromethyl)-1H-benzimidazol-2-yl]morpholin-2-yl]ethyl]phenyl]amino]-2-oxo-ethyl]carbamate] belongs 65.6 nM; to `COC(=O)N[C@H](C(=O)Nc1ccccc1CC[C@@H]1CN[C@H](c2cnc(-c3ccccc3)[nH]2)CO1)C(c1ccccc1)c1ccccc1` [Example 46, Nα-(methoxycarbonyl)-β-phenyl-N-(2-{2-[(2R,5R)-5-(2-phenyl-1H-imidazol-5-yl)morpholin-2-yl]ethyl}phenyl)-L-phenylalaninamide], 841 nM.
For the compound `COC(=O)N[C@H](C(=O)Nc1ccccc1CC[C@@H]1CN[C@H](c2cc3cc(C)ccc3[nH]2)CO1)C(c1ccccc1)c1ccccc1` [Example 54, Nα-(methoxycarbonyl)-N-(2-{2-[(2R,5R)-5-(5-methyl-1H-indol-2-yl)morpholin-2-yl]ethyl}phenyl)-β-phenyl-L-phenylalaninamide], the concentration for half-maximal inhibition (IC50) amounted to 143 nM. This IC50 is about 5.9-fold lower than that of the compound before.
The value for `O=C(C[C@@H](c1ccc(F)cc1)c1ccncc1F)Nc1cccc(F)c1CC[C@@H]1CN[C@H](c2nc3ccccc3[nH]2)CO1` [Example 73, (3S)—N-(2-{2-[(2R,5R)-5-(1H-benzimidazol-2-yl)morpholin-2-yl]ethyl}-3-fluorophenyl)-3-(4-fluorophenyl)-3-(3-fluoropyridin-4-yl)propanamide] was 0.01 nM; that for `O=C(COc1ccccc1Cl)Nc1cccc(F)c1CC[C@@H]1CN[C@H](c2nc3ccccc3[nH]2)CO1` [Example 103, N-(2-{2-[(2R,5R)-5-(1H-benzimidazol-2-yl)morpholin-2-yl]ethyl}-3-fluorophenyl)-2-(2-chlorophenoxy) acetamide] was 31 nM; that for `COC(=O)N[C@H](C(=O)Nc1ccccc1CC[C@@H]1CN[C@H](c2nc3cccc(Br)c3[nH]2)CO1)C(c1ccccc1)c1ccccc1` [Example 14, methyl N-[(1S)-1-benzhydryl-2-[[2-[2-[(2R,5R)-5-(7-bromo-1H-benzimidazol-2-yl)morpholin-2-yl]ethyl]phenyl]amino]-2-oxo-ethyl]carbamate] was 0.592 nM.
For the compound `COC(=O)N[C@H](C(=O)Nc1ccccc1CC[C@@H]1CN[C@H](c2nc3cc(F)c(Br)cc3[nH]2)CO1)C(c1ccccc1)c1ccccc1` [Example 20, methyl N-[(1S)-1-benzhydryl-2-[[2-[2-[(2R,5R)-5-(6-bromo-5-fluoro-1H-benzimidazol-2-yl)morpholin-4-ium-2-yl]ethyl]phenyl]amino]-2-oxo-ethyl]carbamate], the IC50 came to 0.525 nM.
To `N[C@H](C(=O)Nc1cncc(F)c1CC[C@@H]1CN[C@H](c2nc3cc(F)c(F)cc3[nH]2)CO1)C(c1ccc(F)cc1)c1ccc(F)cc1` [Example 93, N-(4-{2-[(2R,5R)-5-(5,6-difluoro-1H-benzimidazol-2-yl)morpholin-2-yl]ethyl}-5-fluoropyridin-3-yl)-4-fluoro-β-(4-fluorophenyl)-L-phenylalaninamide] belongs 0.02 nM.
